Converted amounts (≈) assume the structure as drawn. Read-outs that look alike come from different tables or passages of the source.
How the values were obtained:
[1] = molecular target: Mtb LeuRS (Mycobacterium tuberculosis, UniProt P9WFV1); assay: LeuRS aminoacylation assay, IC50 determination; assay type: biochemical, M. tuberculosis
Method: For biochemical analyses an N-terminal six histidine-tagged LeuRS was over-expressed in Escherichia coli which were E. coli codon-optimised (GenScript, Piscataway N.J., USA), from human mitochondria and cytoplasm, and M. tuberculosis. N-terminal six histidine-tagged LeuRS proteins were over-expressed and purified according to Novagen (Madison, Wis., USA) using an E. coli BL21(DE3) T7 RNA polymerase over-expression strain.
Experiments were performed in 96-well microtiter plates, using 80 μL reaction mixtures containing 50 mM HEPES-KOH (pH 8.0), 30 mM MgCl2 30 mM KCl, 13 μM L-[^14C]leucine (306 mCi/mmol, Perkin-Elmer), 15 uM total E. coli tRNA (Roche, Switzerland), 0.02% (w/v) BSA, 1 mM DTT, 0.2 μM LeuRS and 4 mM ATP at 30° C. Reactions were started by the addition of 4 mM ATP. After 7 minutes, reactions were quenched and tRNA was precipitated by the addition of 50 μL of 10% (w/v) TCA and transferred to 96-well nitrocellulose membrane filter plates (Millipore Multiscreen HTS, MSHAN4B50). Each well was then washed three times with 100 μL of 5% TCA. Filter plates were then dried under a heat lamp and the precipitated L-[^14C]leucine tRNALeu were quantified by liquid scintillation counting using a Wallac MicroBeta Trilux model 1450 liquid scintillation counter (PerkinElmer, Waltham, Mass., USA). The only difference was with the human cytoplasmic LeuRS when we used tRNA isolated from Brewer's Yeast (Roche Diagnostics GmbH).
Reactions were initiated by the addition of 4 mM ATP. Reactions were stopped after 7 minutes then precipitated and counted to quantify radioactivity. IC50 values were determined using the Graphpad Prism software package (Graphpad Software Inc. (La Jolla, Calif., USA).

[2] = molecular target: T1, Human mito LeuRS (Homo sapiens, UniProt Q15031); assay: LeuRS aminoacylation assay, IC50 determination; assay type: biochemical
T1 sequence (Q15031 1-903): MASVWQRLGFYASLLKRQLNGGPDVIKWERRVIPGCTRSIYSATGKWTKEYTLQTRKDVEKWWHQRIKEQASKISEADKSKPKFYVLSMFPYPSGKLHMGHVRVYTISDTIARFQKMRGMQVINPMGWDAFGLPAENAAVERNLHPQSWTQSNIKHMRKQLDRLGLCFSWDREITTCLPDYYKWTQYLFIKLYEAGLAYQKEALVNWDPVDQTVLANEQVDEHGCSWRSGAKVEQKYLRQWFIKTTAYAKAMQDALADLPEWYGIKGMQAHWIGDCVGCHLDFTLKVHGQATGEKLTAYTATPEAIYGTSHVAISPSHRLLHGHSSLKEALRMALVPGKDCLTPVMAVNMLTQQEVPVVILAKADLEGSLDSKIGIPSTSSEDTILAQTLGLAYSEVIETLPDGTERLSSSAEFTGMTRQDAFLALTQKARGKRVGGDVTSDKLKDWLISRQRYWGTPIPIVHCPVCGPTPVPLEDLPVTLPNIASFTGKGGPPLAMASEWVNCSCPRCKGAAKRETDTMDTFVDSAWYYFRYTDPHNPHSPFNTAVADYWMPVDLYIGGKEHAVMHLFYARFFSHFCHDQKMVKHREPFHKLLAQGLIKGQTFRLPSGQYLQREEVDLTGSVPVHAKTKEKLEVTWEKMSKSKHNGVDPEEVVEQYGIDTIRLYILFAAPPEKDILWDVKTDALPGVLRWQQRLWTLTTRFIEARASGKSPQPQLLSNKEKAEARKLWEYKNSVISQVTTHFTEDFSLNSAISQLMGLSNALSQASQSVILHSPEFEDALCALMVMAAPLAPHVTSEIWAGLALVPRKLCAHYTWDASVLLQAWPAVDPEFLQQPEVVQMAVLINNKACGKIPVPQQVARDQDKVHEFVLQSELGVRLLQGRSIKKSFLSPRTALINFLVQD

[3] = system: M. tuberculosis standard strain Mtb H37Rv; assay: MIC determination against mycobacteria (resazurin microtiter assay); assay type: cell-based, Mycobacterium tuberculosis; conditions: for Selectivity Index (A/B): HepG2 cell 48 h Tox50 (A) / Mtb H37Rv MIC (B); for MIC: Mycobacterium tuberculosis, H37RV, read-out: Mtb H37Rv MIC (B)
[4] = molecular target: Human cyto LeuRS (Homo sapiens, UniProt Q9P2J5); assay: LeuRS aminoacylation assay, IC50 determination; assay type: biochemical
Human cyto LeuRS, sequence (Q9P2J5 whole entry): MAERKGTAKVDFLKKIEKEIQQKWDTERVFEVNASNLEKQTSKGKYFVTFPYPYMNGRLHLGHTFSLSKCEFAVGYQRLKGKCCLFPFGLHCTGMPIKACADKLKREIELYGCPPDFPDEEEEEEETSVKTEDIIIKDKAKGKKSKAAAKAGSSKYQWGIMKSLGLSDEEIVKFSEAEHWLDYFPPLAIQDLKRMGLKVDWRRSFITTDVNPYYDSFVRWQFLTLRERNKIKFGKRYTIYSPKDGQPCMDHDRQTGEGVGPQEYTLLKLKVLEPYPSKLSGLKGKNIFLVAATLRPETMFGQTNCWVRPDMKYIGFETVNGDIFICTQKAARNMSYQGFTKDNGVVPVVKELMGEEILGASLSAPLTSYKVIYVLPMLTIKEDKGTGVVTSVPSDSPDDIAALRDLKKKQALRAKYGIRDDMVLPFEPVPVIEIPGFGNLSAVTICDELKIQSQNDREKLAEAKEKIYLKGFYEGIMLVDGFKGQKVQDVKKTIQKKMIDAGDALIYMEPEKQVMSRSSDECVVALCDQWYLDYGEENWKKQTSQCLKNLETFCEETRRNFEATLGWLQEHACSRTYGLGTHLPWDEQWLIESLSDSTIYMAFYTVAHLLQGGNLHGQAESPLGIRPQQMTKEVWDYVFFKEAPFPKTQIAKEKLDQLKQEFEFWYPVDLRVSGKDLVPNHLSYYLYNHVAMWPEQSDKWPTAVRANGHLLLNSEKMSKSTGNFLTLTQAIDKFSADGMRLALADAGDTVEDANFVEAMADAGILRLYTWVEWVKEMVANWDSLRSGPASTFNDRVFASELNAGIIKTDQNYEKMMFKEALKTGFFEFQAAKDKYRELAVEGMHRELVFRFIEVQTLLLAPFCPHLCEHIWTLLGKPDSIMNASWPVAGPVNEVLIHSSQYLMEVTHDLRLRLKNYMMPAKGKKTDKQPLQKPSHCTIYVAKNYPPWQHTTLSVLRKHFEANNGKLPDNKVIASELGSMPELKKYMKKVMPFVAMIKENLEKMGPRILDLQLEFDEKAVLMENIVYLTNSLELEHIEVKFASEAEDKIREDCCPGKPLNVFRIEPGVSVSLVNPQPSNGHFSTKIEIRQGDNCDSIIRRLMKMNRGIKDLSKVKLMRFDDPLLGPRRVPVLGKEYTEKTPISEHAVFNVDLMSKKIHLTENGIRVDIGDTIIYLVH

[5] = system: HepG2 cells; assay: HepG2 cytotoxicity assay (resazurin); assay type: cell-based
[6] = system: P. aeruginosa PA01; assay: General antimicrobial activity assay (CLSI broth microdilution); assay type: cell-based
Method: (§1) Whole-cell antimicrobial activity was determined by broth microdilution using the Clinical and Laboratory Standards Institute (CLSI) recommended procedure, Document M7-A7, “Methods for Dilution Susceptibility Tests for Bacteria that Grow Aerobically”.

[7] = system: E. coli K12; assay: as above; assay type: cell-based
Method: as §1

[8] = system: A. baumannii ATCC 17978; assay: as above; assay type: cell-based
Method: as §1

[9] = system: E. coli K12 tolC::Tn10; assay: as above; assay type: cell-based; conditions: Escherichia coli, read-out: MIC: E. coli K12 tolC::Tn10
Method: as §1

[10] = system: M. tuberculosis clinical isolates; assay: MIC against clinical strains (BACTEC MGIT 960 System); assay type: cell-based; conditions: Mycobacterium tuberculosis, nearly all of the clinical isolate strains of Tables 2A-2D
[11] = Homo sapiens, HepG2, 48 h; read-out: HepG2 cell 48 h Tox50 (A)
[12] = Pseudomonas aeruginosa, PA01; read-out: MIC: P. aeruginosa PA01
[13] = Escherichia coli, K12; read-out: MIC: E. coli K12
[14] = Acinetobacter baumannii, ATCC17978; read-out: MIC: A. baumannii ATCC 17978
[15] = said to be sub-micromolar, read-out: IC50 values against M. tuberculosis
[16] = listed as EXAMPLE 4 G4-Cl, hydrochloride
[17] = Pseudomonas aeruginosa, PA01, read-out: MIC: P. aeruginosa PA01
[18] = Escherichia coli, K12, read-out: MIC: E. coli K12
[19] = Acinetobacter baumannii, ATCC17978, read-out: MIC: A. baumannii ATCC 17978
[20] = Homo sapiens, HepG2, 48 h, read-out: HepG2 cell 48 h Tox50 (A)

Mtb LeuRS, sequence (P9WFV1 whole entry): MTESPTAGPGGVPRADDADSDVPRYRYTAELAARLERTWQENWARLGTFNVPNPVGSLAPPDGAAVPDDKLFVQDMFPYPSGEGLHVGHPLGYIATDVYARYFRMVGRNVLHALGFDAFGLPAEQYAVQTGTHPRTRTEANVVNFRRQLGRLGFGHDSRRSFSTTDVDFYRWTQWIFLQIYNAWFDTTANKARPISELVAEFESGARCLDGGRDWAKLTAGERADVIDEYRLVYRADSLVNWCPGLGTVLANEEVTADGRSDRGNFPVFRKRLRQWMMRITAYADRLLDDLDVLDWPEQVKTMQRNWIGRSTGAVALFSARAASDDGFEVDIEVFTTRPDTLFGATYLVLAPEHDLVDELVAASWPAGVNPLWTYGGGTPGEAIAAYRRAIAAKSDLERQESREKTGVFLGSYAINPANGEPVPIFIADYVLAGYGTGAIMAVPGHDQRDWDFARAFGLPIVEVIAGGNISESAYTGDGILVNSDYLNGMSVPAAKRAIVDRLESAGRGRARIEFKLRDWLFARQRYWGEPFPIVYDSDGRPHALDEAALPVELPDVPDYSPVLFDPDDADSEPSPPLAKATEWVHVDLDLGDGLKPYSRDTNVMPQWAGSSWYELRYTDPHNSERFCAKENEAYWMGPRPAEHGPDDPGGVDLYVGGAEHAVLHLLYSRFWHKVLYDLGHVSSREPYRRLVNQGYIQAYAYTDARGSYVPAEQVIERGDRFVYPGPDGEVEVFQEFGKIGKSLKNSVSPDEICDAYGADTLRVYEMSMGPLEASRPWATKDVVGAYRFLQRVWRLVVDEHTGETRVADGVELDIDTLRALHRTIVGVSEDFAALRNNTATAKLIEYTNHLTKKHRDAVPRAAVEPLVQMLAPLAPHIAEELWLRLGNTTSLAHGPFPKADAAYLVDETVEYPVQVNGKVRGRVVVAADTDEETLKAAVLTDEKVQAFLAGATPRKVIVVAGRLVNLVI

SMILES	IC50 ([1]; read-out: Mtb LeuRS IC50) [nM]	IC50 [2] [µM]	Selectivity Index (A/B) [3]	IC50 [4] [µM]	IC50 [5, 11] [µM]	MIC [9] [µg/mL]	MIC [3] [µM]	MIC [6, 17] [µg/mL]	MIC [7, 18] [µg/mL]	MIC [8, 19] [µg/mL]	IC50 [5, 20] [µM]	also measured
CCOc1cccc2c1B(O)O[C@@H]2CN [Example C5-H, reference compound]	111	> 300	5	25.6	1.8							
CCOc1ccc(Br)c2c1B(O)O[C@@H]2CN [Example C4-Br, reference compound]		> 300		31	32	64 (≈ 224 µM)						IC50 ([1]; Mtb LeuRS IC50): 70 nM; MIC [6, 12]: 64 µg/mL (≈ 224 µM); MIC [7, 13]: 64 µg/mL (≈ 224 µM); MIC [8, 14]: 64 µg/mL (≈ 224 µM)
Cl.NC[C@H]1OB2OCCOc3ccc(Cl)c1c32 [Example 4, (S)-(3-chloro-7,8-dihydro-2H-1,6,9-trioxa-9a-borabenzo[cd]azulen-2-yl)methanamine hydrochloride]	148	> 300		94.7		64	< 0.1	64	64	64	> 1000	IC50 [1, 15]: 100 nM; Selectivity Index (A/B) [3, 16]: >12500; Selectivity Index (A/B) ([3]; listed as Example 4 G4-CI, hydrochloride): > 12,500; Mtb H37Rv MIC (B) [3, 16]: 0.08 µM
CCOc1ccc(Cl)c2c1B(O)O[C@@H]2CN [Example C6-Cl, reference compound]		> 300			36.3	64 (≈ 265 µM)						IC50 ([1]; Mtb LeuRS IC50): 50 nM; MIC [6, 12]: 64 µg/mL (≈ 265 µM); MIC [7, 13]: 64 µg/mL (≈ 265 µM); MIC [8, 14]: 64 µg/mL (≈ 265 µM)
CC1COc2ccc(Cl)c3c2B(O1)OC3CN.Cl (centres unmarked) [Example 7, (3-chloro-8-methyl-7,8-dihydro-2H-1,6,9-trioxa-9a-borabenzo[cd]azulen-2-yl)methanamine hydrochloride]	1080		>250	> 300		> 64	0.2	> 64	> 64	> 64	> 50	
CC1(C)COc2ccc(Cl)c3c2B(O[C@@H]3CN)O1.Cl [Example 12, (S)-(3-chloro-8,8-dimethyl-7,8-dihydro-2H-1,6,9-trioxa-9a-borabenzo[cd]azulen-2-yl)methanamine hydrochloride]	780			> 300		> 64	0.08	> 64	> 64	> 64	322	
CC1(C)COc2ccc(Br)c3c2B(OC3CN)O1.Cl (centres unmarked) [Example 9, (3-bromo-8,8-dimethyl-7,8-dihydro-2H-1,6,9-trioxa-9a-borabenzo[cd]azulen-2-yl)methanamine hydrochloride]	1250			> 300		> 64	0.3	> 64	> 64	> 64	> 50	Selectivity Index (A/B) ([3]; listed as EXAMPLE 9 G9-Br, hydrochloride): >167; Selectivity Index (A/B) ([3]; listed as Example 9 G9-Br, hydrochloride): > 167
NC[C@H]1OB2OCCOc3ccc(Cl)c1c32 [Example G4-CI]												MIC [10]: < 0.1 µM
Cl.NC[C@H]1OB2OCCOc3ccc(Br)c1c32 [Example 2, (S)-(3-bromo-7,8-dihydro-2H-1,6,9-trioxa-9a-borabenzo[cd]azulen-2-yl)methanamine hydrochloride]	115	> 300	4177	118		64	< 0.1	64	64	64	292	MIC [10]: < 0.1 µM; IC50 [1, 15]: 130 nM; Mtb H37Rv MIC (B) ([3]; listed as EXAMPLE 2 G2-Br, hydrochloride): 0.07 µM
NCC1OB2OCCOc3cccc1c32 (racemic) [Example C2-H, reference compound]	506	> 300	>26	272		4 (≈ 19.5 µM)		2 (≈ 9.76 µM)	2 (≈ 9.76 µM)	2 (≈ 9.76 µM)	> 50	
